Consider six compounds from ChEMBL document CHEMBL1134206 (Bioorg Med Chem Lett, 2001).

For one assay, the species on record is Rattus norvegicus. Kind of assay: Neuronal protective effect of compound against ischemic brain damage in rat t-MCAO model. It counts as functional.
The target in assay [1] is T1, 5-hydroxytryptamine receptor 1A (Rattus norvegicus, UniProt P19327).
T1 sequence (P19327 whole entry): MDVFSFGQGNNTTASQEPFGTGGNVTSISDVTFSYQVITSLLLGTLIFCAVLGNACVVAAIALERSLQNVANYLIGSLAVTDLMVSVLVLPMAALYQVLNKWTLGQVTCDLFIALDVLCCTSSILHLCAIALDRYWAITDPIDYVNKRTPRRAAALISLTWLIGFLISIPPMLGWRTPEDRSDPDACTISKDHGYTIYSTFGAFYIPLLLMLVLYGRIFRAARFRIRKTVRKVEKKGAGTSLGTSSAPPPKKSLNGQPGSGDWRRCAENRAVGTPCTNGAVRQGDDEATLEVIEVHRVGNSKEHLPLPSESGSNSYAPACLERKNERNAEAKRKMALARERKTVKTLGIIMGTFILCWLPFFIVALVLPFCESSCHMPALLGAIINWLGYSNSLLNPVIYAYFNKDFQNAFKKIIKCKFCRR
Kind of assay: Binding affinity to 5-hydroxytryptamine 1A receptor of rat hippocampus with [3H]8-OH-DPAT as radioligand. The format is tissue-based.

The target of assay [2] is T2, 5-hydroxytryptamine receptor 1A (Rattus norvegicus) (UniProt P19327).
T2 sequence (whole entry): T1 sequence (P19327 whole entry)
Kind of assay: Ratio of binding affinity to 5-HT 1A and D2 receptor.

For the next assay, the target named is D(2) dopamine receptor (Rattus norvegicus, UniProt P61169). Kind of assay: Binding affinity to Dopamine receptor D2 in of rat striatum membrane with [3H]- raclopride as radioligand. It counts as cell membranes.

In general, Inhibition refers to the share of the control response that was lost under treatment. Read a high Inhibition as a response far below the control. What is called IC50 is the point on the concentration scale where inhibition reaches its midpoint. Higher therefore signals weaker potency.

Sequence of D(2) dopamine receptor (P61169 whole entry): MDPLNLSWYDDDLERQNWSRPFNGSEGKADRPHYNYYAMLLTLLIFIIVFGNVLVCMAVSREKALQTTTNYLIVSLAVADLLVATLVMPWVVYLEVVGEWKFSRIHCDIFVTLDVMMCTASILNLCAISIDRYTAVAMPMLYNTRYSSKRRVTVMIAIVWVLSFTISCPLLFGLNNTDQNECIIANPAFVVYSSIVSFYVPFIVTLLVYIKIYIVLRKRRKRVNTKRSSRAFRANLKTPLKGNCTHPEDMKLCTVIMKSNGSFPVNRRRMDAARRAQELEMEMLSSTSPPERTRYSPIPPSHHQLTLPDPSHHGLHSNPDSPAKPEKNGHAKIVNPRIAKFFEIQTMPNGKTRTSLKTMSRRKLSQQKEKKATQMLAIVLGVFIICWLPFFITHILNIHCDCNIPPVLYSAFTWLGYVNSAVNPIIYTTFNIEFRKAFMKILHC

Turning to `Cc1c(N(C)C)c(=O)n(-c2ccccc2)n1C` [AMINOPYRINE], the Inhibition in the assay listed under Rattus norvegicus worked out at 21%.
`O=C1c2ccccc2OC=CN1CCCCN1CCN(c2ncccn2)CC1` returned an IC50 in assay [1] of 18 nM.
For the compound `CC1=COc2ccccc2C(=O)N1CCCCN1CCN(c2ncccn2)CC1`, the Ratio in assay [2] came out at 108. Also, the IC50 at D(2) dopamine receptor came to 1100 nM; in assay [1], 10.2 nM.
With `O=C1c2ccccc2OC=C(Cl)N1CCCCN1CCN(c2ccccn2)CC1`, the Ratio in assay [2] stood at 66.
As for `O=C1c2ccccc2OC=C(Cl)N1CCCCN1CC=C(c2ccccn2)CC1` [PICLOZOTAN], in assay [2], the Ratio amounted to 179. This compound also gave an IC50 at D(2) dopamine receptor of 84 nM. Also, in the assay listed under Rattus norvegicus, the Inhibition was determined as 63%.
For the compound `O=C1c2ccccc2OC=C(Cl)N1CCCCN1CCN(c2ncccn2)CC1`, the Ratio in assay [2] worked out at 125. Further, the values for the IC50 (at D(2) dopamine receptor; in assay [1]) were 199 nM and 1.59 nM, respectively.
